Source: publication PMC11590026, “Synthesis, enzyme inhibition, and docking studies of new schiff bases of disalicylic acid methylene-based derivatives as dual-target antibacterial agents” (Frontiers in Chemistry, 2024)
≈ marks a conversion by molar mass, not a printed value. Where “and” joins values, the source holds several entries; their conditions need not be identical. Identical values can stand only once. Like-named read-outs stand apart in the source and are kept apart here.

Columns and labels:
[1] = molecular target: S. aureus topoisomerase IV; conditions: internal standard value stated in the supplementary method; cited from earlier work
P. aeruginosa = assay: MIC/MBC assay, twofold serial dilution; format: cell-based, Pseudomonas aeruginosa
Description: (§1) The results of this in vitro assay test are consistent with the findings of the antimicrobial sensitivity test. […] It has lower antimicrobial activity than ciprofloxacin against all pathogens tested.
(§2) The MBC differs from the MIC. […]
(§3) 4.2.2. Minimum inhibitory concentration assay
(§4) In 96-well microtiter plates and […] of fresh bacterial culture of a single McFarland unit overnight, a double serial dilution of each compound […] in sterile standard saline were prepared to every single source well. Ciprofloxacin antibiotic (5 mg / mL - 1) and normal saline were included as standard reference in each assay. The plates were incubated at 37 0C overnight. As an indicator of bacterial growth, […] of p-iodonitrotetrazolium violet (INT) was added to each well and incubated at 37 0C for 30 […]
(§5) min. MIC values are recorded as the lowest concentration of the extract that completely inhibited bacterial growth that is clear well. The colorless tetrazolidium salt acts as an electron accepter and is reduced to a red colored formazan product by biological activity organisms. Where bacterial growth was inhibited, the solution in the well remained clear after incubation with INT. […]

[2] = test system: MDRB (multi-drug resistant bacteria); assay: MIC/MBC against the MDRB panel as a whole
From the text: Norfloxacin, a broad-spectrum antibiotic, worked as positive control.

S. aureus = assay: MIC/MBC assay, twofold serial dilution; format: cell-based, Staphylococcus aureus
Description: as §1, §2, §3, §4, §5

[3] = Cell viability assay (MTT); format: cell-based; conditions: human, MCF-10A, 4-day incubation
Description: The vitality of the investigated compounds was assessed using the MCF-10A cell line, which is a normal human mammary gland epithelial cell line. Following a 4-day incubation period on MCF-10A cells with a concentration of 50 µM for each compound being studied, the viability of the cells was assessed using the MTT test ([Hisham et al., 2022]; [Mahmoud et al., 2022]).
4.2.3. Cell Viability assay
MTT assay was carried out to study the effect of compounds on mammary epithelial cells (MCF-10A). The medium in which cells were propagated contained Dulbecco's modified Eagle's medium (DMEM)/ Ham's F-12 medium (1:1) supplemented with epidermal growth factor (20 ng/mL), hydrocortisone (500 ng/mL), insulin (10 μg/mL), 2 mM glutamine and 10% fetal calf serum. After every 2-3 days, the cells were passaged using trypsin ethylenediamine tetra acetic acid (EDTA). The cells were seeded at a density of 10^4 cells mL-1 in flat-bottomed culture plates containing 96 wells each. After 24 h, medium was removed from the plates and the compounds in (in 0.1% DMSO) were added (in 200 μL medium to yield a final concentration of 0.1% v/v) to the wells of plates. A single compound was designated with four wells followed by incubation of plates for 96h at 37°C. After incubation, medium was removed completely from the plates followed by addition of MTT (0.4 mg/mL in medium) to each well and subsequent incubation of plates for 3h. MTT (along with the medium) was removed and DMSO (150μL) was added to each well of the culture plates, followed by vortexing and subsequent measurement of absorbance (at 540 nm) using microplate reader. The data are shown as percentage inhibition of proliferation in comparison with controls

E. coli DNA gyrase = E. coli DNA gyrase (Escherichia coli, UniProt P0AES6); assay: E. coli DNA gyrase supercoiling inhibitory assay; format: biochemical
Description: The fluorescence was measured with a microplate reader (BioTek Synergy H4,
NaCl and 50 mM MgCl2) was added to terminate the enzymatic reaction. After
Initial screening was done at 100 or 10 μM concentration

DHFR E. Coli = DHFR E. Coli (Escherichia coli, UniProt P0ABQ4); assay: DHFR inhibitory assay; format: biochemical
DHFR E. Coli, sequence (P0ABQ4 whole entry): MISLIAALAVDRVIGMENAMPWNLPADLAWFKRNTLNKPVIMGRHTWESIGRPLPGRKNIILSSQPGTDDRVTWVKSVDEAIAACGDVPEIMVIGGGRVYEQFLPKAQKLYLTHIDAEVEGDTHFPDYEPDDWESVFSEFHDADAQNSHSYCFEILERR

B. subtilis [4] = assay: MIC/MBC assay, twofold serial dilution; format: cell-based, Bacillus subtilis
Description: as §1, §2, §3, §4, §5

A. flavus = assay: Antifungal assay (MIC/MFC), twofold serial dilution; conditions: for MIC: A. flavus
E. coli = assay: MIC/MBC assay, twofold serial dilution; format: cell-based, Escherichia coli; conditions: Escherichia coli
Description: as §1, §2, §3, §4, §5

C. albicans = assay: Antifungal assay (MIC/MFC), twofold serial dilution
[5] = test system: P. aeruginosa (ATCC BAA-2111); assay: Antibacterial assay against multi-drug resistant strains (MIC/MBC); format: cell-based, Pseudomonas aeruginosa; conditions: Pseudomonas aeruginosa
E. coli (ATCC BAA-196) = assay: as above; format: cell-based, Escherichia coli; conditions: Escherichia coli
[6] = test system: S. aureus (ATCC 43300) (MRSA); assay: as above; format: cell-based, Staphylococcus aureus; conditions: Staphylococcus aureus, S. aureus ATCC 43300 (MRSA)
Gram-positive bacteria = assay: MBC assay, Gram-positive bacteria together; format: cell-based; conditions: Gram-positive bacteria (B. subtilis, S. aureus)
From the text: The MBC differs from the MIC.

S. aureus DNA gyrase = molecular target: S. aureus DNA gyrase; parameters: method as in Alzahrani et al., 2022; conditions: ref Alzahrani et al., 2022; read-out: S. aureus DNA gyrase inhibitor IC50; cited from earlier work
B. subtilis [7] = test system: B. subtilis; parameters: method as in Al-Wahaibi et al., 2024; conditions: ref Al-Wahaibi et al., 2024; cited from earlier work
Topoisomerase IV = conditions: earlier work; ref Al-Wahaibi et al., 2024; cited from earlier work

Compound: CO[C@@H]1[C@@H](OC(N)=O)[C@@H](O)[C@H](Oc2ccc3c(O)c(NC(=O)c4ccc(O)c(CC=C(C)C)c4)c(=O)oc3c2C)OC1(C)C [Novobiocin]
- IC50 [1]: 26.7 µM

Compound: O=C1Nc2ccc([N+](=O)[O-])cc2/C1=N/NC(=O)c1cc(Cc2ccc(O)c(C(=O)N/N=C3\C(=O)Nc4ccc([N+](=O)[O-])cc43)c2)ccc1O [Compound 6l]
- MBC (P. aeruginosa): 0.078 ± 0.006 µM (≈ 0.0518 µg/mL)
- MBC (P. aeruginosa; Pseudomonas aeruginosa, read-out: MBC): 0.078 µM (≈ 0.0518 µg/mL)
- MIC (P. aeruginosa; Pseudomonas aeruginosa, read-out: MIC): 0.057 ± 0.004 µM (≈ 0.0379 µg/mL)
- MBC ([2]; read-out: MBC values): 4.5 to 6.5 µM (≈ 2.99 to 4.32 µg/mL)
- MIC ([2]; read-out: MIC values): 2.2 to 4.5 µM (≈ 1.46 to 2.99 µg/mL)
- MBC (S. aureus): 0.033 ± 0.002 µM (≈ 0.0219 µg/mL)
- MIC (S. aureus): 0.021 ± 0.002 µM (≈ 0.014 µg/mL)
- Times more effective than ciprofloxacin (MIC) (S. aureus): 1.5 times
- MBC (S. aureus; Staphylococcus aureus, read-out: MBC): 0.033 µM (≈ 0.0219 µg/mL)
- MIC (S. aureus; Staphylococcus aureus, read-out: MIC): 0.021 µM (≈ 0.014 µg/mL)
- viability at 96 h, 50 µM [3]: 89%
- IC50 (E. coli DNA gyrase): 0.087 ± 0.006 µM
- Potency relative to novobiocin against DNA gyrase (E. coli DNA gyrase): twice as potent as novobiocin
- IC50 (DHFR E. Coli): 4.25 ± 0.1 µM
- MBC (B. subtilis [4]): 0.043 ± 0.003 µM (≈ 0.0286 µg/mL)
- Times less effective than ciprofloxacin (MIC) (B. subtilis [4]): 2.5 times
- MBC (B. subtilis [4]; Bacillus subtilis, read-out: MBC): 0.043 µM (≈ 0.0286 µg/mL)
- MIC (B. subtilis [4]; Bacillus subtilis, read-out: MIC): 0.026 ± 0.002 µM (≈ 0.0173 µg/mL)
- MIC (A. flavus): 15.60 µM and 15.60 ± 1 µM
- MFC (A. flavus; Aspergillus flavus): 31.1 ± 2 µM (≈ 20.7 µg/mL)
- MIC (A. flavus; Aspergillus flavus): 14.5 to 19.5 µM (≈ 9.64 to 13 µg/mL)
- MBC (E. coli; read-out: MBC): 0.077 ± 0.006 µM (≈ 0.0512 µg/mL)
- MIC (E. coli; read-out: MIC): 0.057 ± 0.004 µM (≈ 0.0379 µg/mL)
- MIC (C. albicans; C. albicans): 19.50 ± 1 µM (≈ 13 µg/mL)
- MFC (C. albicans; Candida albicans): 39.2 ± 3 µM (≈ 26.1 µg/mL)
- MIC (C. albicans; Candida albicans): 19.5 µM (≈ 13 µg/mL)
- MBC ([5]; ATCCBAA2111): 6.5 ± 0.25 µM (≈ 4.32 µg/mL)
- MIC ([5]; ATCCBAA2111, read-out: MIC): 4.5 ± 0.2 µM (≈ 2.99 µg/mL)
- MBC (E. coli (ATCC BAA-196); ATCCBAA196): 4.8 ± 0.2 µM (≈ 3.19 µg/mL)
- MIC (E. coli (ATCC BAA-196); ATCCBAA196, read-out: MIC): 2.7 ± 0.1 µM (≈ 1.79 µg/mL)
- MBC ([6]; read-out: MBC): 4.5 ± 0.2 µM (≈ 2.99 µg/mL)
- MIC ([6]; read-out: MIC): 2.2 ± 0.1 µM (≈ 1.46 µg/mL)
- MBC (Gram-positive bacteria): 0.028 to 0.058 µM (≈ 0.0186 to 0.0385 µg/mL)

Compound: CCN(CC)S(=O)(=O)c1ccc2c(c1)C1(C(=O)N2)C(C#N)=COC(c2ccccc2)=C1C(C)=O (stereo not shown) [I]
- IC50 (S. aureus DNA gyrase): 18.1 µM

Compound: CN(C)c1ccc(/C=N/NC(=O)c2cc(Cc3ccc(O)c(C(=O)N/N=C/c4ccc(N(C)C)cc4)c3)ccc2O)cc1 [Compound 5i]
- Times less potent/effective than ciprofloxacin (MIC) (B. subtilis [7]): 7 times
- IC50 (Topoisomerase IV): 5.8 µM
